Laboratory results published in BindingDB's records for doi:10.1124/mol.107.035832 (Nih, 2007).

Key:
[1] = target: T1, Serine/threonine-protein kinase Chk2 [209-531,Q209M] (Homo sapiens, UniProt O96017, Q209M); test: IMAP High-Throughput Screening; conditions: pH 7.2; 23 °C
T1 construct: 209-531
Experimental: The IMAP Screening Express Kit (Molecular Devices, Sunnyvale, CA) was used for the high-throughput screening experiments. Compounds from the Developmental Therapeutics Program (DTP) Open Repository were solubilized and diluted in DMSO and initially tested at one concentration in the assay. Active compounds were subsequently titrated at 20 2-fold dilutions. Reactions were performed using recombinant Chk2 with the indicated drug concentrations in reaction buffer in 384-well black microplate (Greiner Bio-One, Longwood, FL)] for 60 min at room temperature. IMAP binding reagent was added to each well, plates were incubated for 30 min at room temperature, and fluorescence polarization was measured using a Tecan Ultra plate reader. Each screening plate contained staurosporine as a positive control.

[2] = target: T1, Serine/threonine-protein kinase Chk2 [209-531,Q209M]; test: In Vitro Protein Kinase Assay; conditions: pH 7.5; 30 °C
Experimental: Recombinant Chk2 was incubated with either histone H1 (or GST-Cdc25C) in reaction buffer, and incubated at 30 deg C for indicated times. For the drug inhibition experiments, samples were coincubated with drug during the reactions. Reactions were stopped by adding sample buffer, and samples were boiled for 5 min. Reaction products were separated by 4-20% SDS-PAGE. Chk2 protein kinase activity, measured as 32P incorporation into Chk2, histone H1 (or GST-Cdc25C), was determined using a PhosphorImager (GE Healthcare, Chalfont St. Giles, Buckinghamshire, UK). Densitometry was performed using Image-Quant.

T1 sequence (O96017 209-531 Q209M): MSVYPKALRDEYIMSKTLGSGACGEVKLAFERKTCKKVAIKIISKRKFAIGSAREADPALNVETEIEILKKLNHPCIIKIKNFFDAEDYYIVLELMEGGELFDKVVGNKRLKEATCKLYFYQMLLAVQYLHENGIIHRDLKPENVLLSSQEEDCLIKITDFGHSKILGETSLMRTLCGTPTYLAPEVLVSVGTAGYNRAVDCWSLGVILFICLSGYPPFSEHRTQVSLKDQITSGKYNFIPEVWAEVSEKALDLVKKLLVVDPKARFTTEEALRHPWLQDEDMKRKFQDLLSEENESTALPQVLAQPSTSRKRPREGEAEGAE

Compound	IC50 [1] [µM]	IC50 [2] [nM]
CC(=NN=C(N)N)c1ccc(NC(=S)Nc2ccccc2)cc1 [NSC 177940]	> 20	
NC1=NC(=O)C(=C2CCNC(=O)c3[nH]ccc32)N1 [B722657K110]		420
CC(=NN=C(N)N)c1ccc(NC(=O)Nc2ccc(C(C)=NN=C(N)N)cc2)cc1 [diacetyldiphenylurea bisguanylhydrazone]	0.2	240
CC(=NN=C(N)N)c1ccc(C(C)=NN=C(N)N)cc1 [NSC 67931]	> 20	
CC(=NN=C(N)N)c1cccc(NC(=S)Nc2cccc(C(C)=NN=C(N)N)c2)c1 [NSC 177941]	> 20	
CNC(=O)Nc1ccc(C(C)=NNC(N)=S)cc1 [NSC 377844]	> 20	
CC(=NN=C(N)N)c1cccc(NC(=O)Nc2cccc(C(C)=NN=C(N)N)c2)c1 [NSC 177944]	> 20	
CC(C=NNC(=N)N)=NNC(=N)N [NSC 69432 (MGBG)]	> 20	
